Source: the supplement of paper PMC10307832

Legend:
Experiment in all cases: relative viability (nuclei count vs DMSO), 5 days (fraction); higher = more cells survive
[1] = compound: C1=CC2=NC=CN=C2C=C1/C=C/3\C(=O)NC(=O)S3 + COc1cccc2cc(-c3nc([C@H]4CC[C@H](C(=O)O)CC4)n4ncnc(N)c34)[nH]c12 [OSI-027] (partner 0.5 µM)
How it was run: (§1)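 Lung cancer cell lines, seeded in 1536-well plates, were treated the following day by pin tool with a single drug or with five library-drug doses (not always all listed) in √10 steps on top of a fixed anchor-drug dose. Cells were fixed and nuclei stained in one step after 5 days, and nuclei were counted. Relative viability is the nuclei count for treated wells divided by that for vehicle wells, reported as medians of duplicate plates.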

[2] = compound: C1=CC2=NC=CN=C2C=C1/C=C/3\C(=O)NC(=O)S3 + O=C(CCCCCCC(=O)Nc1ccccc1)NO [Vorinostat] (partner 1 µM)
How it was run: as §1

[3] = compound: CCN1CCN(c2ccc(Nc3cc(N(C)C(=O)Nc4c(Cl)c(OC)cc(OC)c4Cl)ncn3)cc2)CC1 [BGJ398] + CC1(C)CCC(c2ccc(Cl)cc2)=C(CN2CCN(c3ccc(C(=O)NS(=O)(=O)c4ccc(N[C@H](CCN5CCOCC5)CSc5ccccc5)c(S(=O)(=O)C(F)(F)F)c4)cc3)CC2)C1 [Navitoclax] (partner 0.5 µM)
How it was run: as §1

[4] = compound: CCN1CCN(c2ccc(Nc3cc(N(C)C(=O)Nc4c(Cl)c(OC)cc(OC)c4Cl)ncn3)cc2)CC1 [BGJ398] + C[C@]1(O)C[C@@H](c2nc(-c3ccc4ccc(-c5ccccc5)nc4c3)c3c(N)nccn32)C1 [Linsitinib] (partner 1 µM)
How it was run: as §1

NCI-H1993 was tested, and the relative viability ([1]; first compound 0.02 µM) was 0.494, the relative viability ([1]; first compound 0.06325 µM) was 0.552 and the relative viability ([1]; first compound 0.2 µM) was 0.551. For the same cell line, the relative viability ([1]; first compound 0.6325 µM) was 0.544, the relative viability ([1]; first compound 2 µM) was 0.475 and the relative viability ([2]; first compound 0.02 µM) was 0.734. For the same cell line, the relative viability ([2]; first compound 0.06325 µM) was 0.843, the relative viability ([2]; first compound 0.2 µM) was 1.08 and the relative viability ([2]; first compound 0.6325 µM) was 0.767. It also gave a relative viability ([2]; first compound 2 µM) of 0.008, a relative viability ([3]; first compound 0.01 µM) of 1.02 and a relative viability ([3]; first compound 0.03162 µM) of 0.836. For the same cell line, the relative viability ([3]; first compound 0.1 µM) was 0.909, the relative viability ([3]; first compound 0.3162 µM) was 1.02 and the relative viability ([3]; first compound 1 µM) was 0.882. The relative viability ([4]; first compound 0.01 µM) was 0.764, the relative viability ([4]; first compound 0.03162 µM) was 0.791 and the relative viability ([4]; first compound 0.1 µM) was 0.752. The relative viability ([4]; first compound 0.3162 µM) was 0.894 and the relative viability ([4]; first compound 1 µM) was 0.729.

NCI-H2009 showed a relative viability ([1]; first compound 0.02 µM) of 0.682, a relative viability ([1]; first compound 0.06325 µM) of 0.659 and a relative viability ([1]; first compound 0.2 µM) of 0.701. For the same cell line, the relative viability ([1]; first compound 0.6325 µM) was 0.579, the relative viability ([1]; first compound 2 µM) was 0.452 and the relative viability ([2]; first compound 0.02 µM) was 0.659. For the same cell line, the relative viability ([2]; first compound 0.06325 µM) was 0.716, the relative viability ([2]; first compound 0.2 µM) was 0.714 and the relative viability ([2]; first compound 0.6325 µM) was 0.685. For the same cell line, the relative viability ([2]; first compound 2 µM) was 0.703, the relative viability ([3]; first compound 0.01 µM) was 1.21 and the relative viability ([3]; first compound 0.03162 µM) was 1.19. The relative viability ([3]; first compound 0.1 µM) was 1.18, the relative viability ([3]; first compound 0.3162 µM) was 1.23 and the relative viability ([3]; first compound 1 µM) was 1.17. The relative viability ([4]; first compound 0.01 µM) was 1.18, the relative viability ([4]; first compound 0.03162 µM) was 1.24 and the relative viability ([4]; first compound 0.1 µM) was 1.14. It also gave a relative viability ([4]; first compound 0.3162 µM) of 1.16 and a relative viability ([4]; first compound 1 µM) of 1.17.

NCI-H2023 was tested, and the relative viability ([1]; first compound 0.02 µM) was 0.423, the relative viability ([1]; first compound 0.06325 µM) was 0.346 and the relative viability ([1]; first compound 0.2 µM) was 0.478. The relative viability ([1]; first compound 0.6325 µM) was 0.326, the relative viability ([1]; first compound 2 µM) was 0.161 and the relative viability ([2]; first compound 0.02 µM) was 0.675. For the same cell line, the relative viability ([2]; first compound 0.06325 µM) was 0.51, the relative viability ([2]; first compound 0.2 µM) was 0.739 and the relative viability ([2]; first compound 0.6325 µM) was 0.632. It also gave a relative viability ([2]; first compound 2 µM) of 0.441, a relative viability ([3]; first compound 0.01 µM) of 0.953 and a relative viability ([3]; first compound 0.03162 µM) of 1.01. The relative viability ([3]; first compound 0.1 µM) was 1.01, the relative viability ([3]; first compound 0.3162 µM) was 1.02 and the relative viability ([3]; first compound 1 µM) was 0.993. The relative viability ([4]; first compound 0.01 µM) was 0.602, the relative viability ([4]; first compound 0.03162 µM) was 0.831 and the relative viability ([4]; first compound 0.1 µM) was 0.657. The relative viability ([4]; first compound 0.3162 µM) was 0.688 and the relative viability ([4]; first compound 1 µM) was 0.646.

NCI-H2085 was tested, and the relative viability ([1]; first compound 0.02 µM) was 0.75, the relative viability ([1]; first compound 0.06325 µM) was 0.847 and the relative viability ([1]; first compound 0.2 µM) was 0.82. The relative viability ([1]; first compound 0.6325 µM) was 0.827, the relative viability ([1]; first compound 2 µM) was 0.635 and the relative viability ([2]; first compound 0.02 µM) was 0.729. It also gave a relative viability ([2]; first compound 0.06325 µM) of 0.716, a relative viability ([2]; first compound 0.2 µM) of 0.799 and a relative viability ([2]; first compound 0.6325 µM) of 0.781. It also gave a relative viability ([2]; first compound 2 µM) of 0.748, a relative viability ([3]; first compound 0.01 µM) of 1.09 and a relative viability ([3]; first compound 0.03162 µM) of 1.13. For the same cell line, the relative viability ([3]; first compound 0.1 µM) was 1.15, the relative viability ([3]; first compound 0.3162 µM) was 1.23 and the relative viability ([3]; first compound 1 µM) was 1.05. The relative viability ([4]; first compound 0.01 µM) was 0.872, the relative viability ([4]; first compound 0.03162 µM) was 0.943 and the relative viability ([4]; first compound 0.1 µM) was 0.975. It also gave a relative viability ([4]; first compound 0.3162 µM) of 1.01 and a relative viability ([4]; first compound 1 µM) of 0.934.

NCI-H2087 gave a relative viability ([1]; first compound 0.02 µM) of 0.42, a relative viability ([1]; first compound 0.06325 µM) of 0.523 and a relative viability ([1]; first compound 0.2 µM) of 0.615. For the same cell line, the relative viability ([1]; first compound 0.6325 µM) was 0.574, the relative viability ([1]; first compound 2 µM) was 0.37 and the relative viability ([2]; first compound 0.02 µM) was 0.536. It also gave a relative viability ([2]; first compound 0.06325 µM) of 0.742, a relative viability ([2]; first compound 0.2 µM) of 0.58 and a relative viability ([2]; first compound 0.6325 µM) of 0.646. For the same cell line, the relative viability ([2]; first compound 2 µM) was 0.469, the relative viability ([3]; first compound 0.01 µM) was 0.847 and the relative viability ([3]; first compound 0.03162 µM) was 0.973. For the same cell line, the relative viability ([3]; first compound 0.1 µM) was 0.83, the relative viability ([3]; first compound 0.3162 µM) was 0.974 and the relative viability ([3]; first compound 1 µM) was 0.741. For the same cell line, the relative viability ([4]; first compound 0.01 µM) was 0.973, the relative viability ([4]; first compound 0.03162 µM) was 0.886 and the relative viability ([4]; first compound 0.1 µM) was 0.988. For the same cell line, the relative viability ([4]; first compound 0.3162 µM) was 0.922 and the relative viability ([4]; first compound 1 µM) was 0.881.

With NCI-H2126 the relative viability ([1]; first compound 0.02 µM) was 0.627, the relative viability ([1]; first compound 0.06325 µM) was 0.629 and the relative viability ([1]; first compound 0.2 µM) was 0.735. The relative viability ([1]; first compound 0.6325 µM) was 0.734, the relative viability ([1]; first compound 2 µM) was 0.363 and the relative viability ([2]; first compound 0.02 µM) was 0.666. The relative viability ([2]; first compound 0.06325 µM) was 0.825, the relative viability ([2]; first compound 0.2 µM) was 0.843 and the relative viability ([2]; first compound 0.6325 µM) was 0.801. The relative viability ([2]; first compound 2 µM) was 0.462, the relative viability ([3]; first compound 0.01 µM) was 0.809 and the relative viability ([3]; first compound 0.03162 µM) was 0.831. It also gave a relative viability ([3]; first compound 0.1 µM) of 0.888, a relative viability ([3]; first compound 0.3162 µM) of 0.839 and a relative viability ([3]; first compound 1 µM) of 0.902. The relative viability ([4]; first compound 0.01 µM) was 0.688, the relative viability ([4]; first compound 0.03162 µM) was 0.692 and the relative viability ([4]; first compound 0.1 µM) was 0.713. The relative viability ([4]; first compound 0.3162 µM) was 0.739 and the relative viability ([4]; first compound 1 µM) was 0.746.

With NCI-H2228 the relative viability ([1]; first compound 0.02 µM) was 0.665, the relative viability ([1]; first compound 0.06325 µM) was 0.581 and the relative viability ([1]; first compound 0.2 µM) was 0.525. It also gave a relative viability ([1]; first compound 0.6325 µM) of 0.661, a relative viability ([1]; first compound 2 µM) of 0.335 and a relative viability ([2]; first compound 0.02 µM) of 0.844. For the same cell line, the relative viability ([2]; first compound 0.06325 µM) was 0.821, the relative viability ([2]; first compound 0.2 µM) was 0.616 and the relative viability ([2]; first compound 0.6325 µM) was 0.572. It also gave a relative viability ([2]; first compound 2 µM) of 0.719, a relative viability ([3]; first compound 0.01 µM) of 0.728 and a relative viability ([3]; first compound 0.03162 µM) of 1.04. It also gave a relative viability ([3]; first compound 0.1 µM) of 0.998, a relative viability ([3]; first compound 0.3162 µM) of 0.893 and a relative viability ([3]; first compound 1 µM) of 0.867. For the same cell line, the relative viability ([4]; first compound 0.01 µM) was 0.63, the relative viability ([4]; first compound 0.03162 µM) was 0.438 and the relative viability ([4]; first compound 0.1 µM) was 0.19. It also gave a relative viability ([4]; first compound 0.3162 µM) of 0.852 and a relative viability ([4]; first compound 1 µM) of 0.719.

NCI-H2347 gave a relative viability ([1]; first compound 0.02 µM) of 0.505, a relative viability ([1]; first compound 0.06325 µM) of 0.306 and a relative viability ([1]; first compound 0.2 µM) of 0.412. For the same cell line, the relative viability ([1]; first compound 0.6325 µM) was 0.5, the relative viability ([1]; first compound 2 µM) was 0.276 and the relative viability ([2]; first compound 0.02 µM) was 0.53. The relative viability ([2]; first compound 0.06325 µM) was 0.565, the relative viability ([2]; first compound 0.2 µM) was 0.718 and the relative viability ([2]; first compound 0.6325 µM) was 0.49. The relative viability ([2]; first compound 2 µM) was 0.591, the relative viability ([3]; first compound 0.01 µM) was 0.671 and the relative viability ([3]; first compound 0.03162 µM) was 0.939. For the same cell line, the relative viability ([3]; first compound 0.1 µM) was 0.828, the relative viability ([3]; first compound 0.3162 µM) was 0.835 and the relative viability ([3]; first compound 1 µM) was 0.777. For the same cell line, the relative viability ([4]; first compound 0.01 µM) was 0.989, the relative viability ([4]; first compound 0.03162 µM) was 1.08 and the relative viability ([4]; first compound 0.1 µM) was 0.975. It also gave a relative viability ([4]; first compound 0.3162 µM) of 0.968 and a relative viability ([4]; first compound 1 µM) of 1.
